“And” between values parts separate entries of the source, which are not always exact repeats. Equal values may be shown once. “Also recorded” adds a separate entry of the source. Read-outs that look alike come from different tables or passages of the source.
Columns and labels:
α1B adrenergic receptor = biological target: T1, α1B adrenergic receptor (Homo sapiens, UniProt P35368); experiment: α1B adrenergic receptor antagonist assay (cAMP, CHO cells); type: cell-based
T1 construct: host or cells: CHO cells
T1 sequence (P35368 1-520): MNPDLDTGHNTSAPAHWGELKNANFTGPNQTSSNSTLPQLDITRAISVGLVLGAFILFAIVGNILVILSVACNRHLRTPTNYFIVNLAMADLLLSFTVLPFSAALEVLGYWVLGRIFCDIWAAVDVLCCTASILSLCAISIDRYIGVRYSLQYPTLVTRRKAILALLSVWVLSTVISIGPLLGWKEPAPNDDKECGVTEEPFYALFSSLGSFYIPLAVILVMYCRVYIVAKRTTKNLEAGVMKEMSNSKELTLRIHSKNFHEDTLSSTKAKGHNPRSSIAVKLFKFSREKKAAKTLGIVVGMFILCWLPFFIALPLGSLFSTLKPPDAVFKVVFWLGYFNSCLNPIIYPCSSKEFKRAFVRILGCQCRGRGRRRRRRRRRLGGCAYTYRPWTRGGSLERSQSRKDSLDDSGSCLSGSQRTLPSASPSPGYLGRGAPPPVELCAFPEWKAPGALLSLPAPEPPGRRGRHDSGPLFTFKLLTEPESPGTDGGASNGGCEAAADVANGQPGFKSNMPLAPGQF
Method: (§1) α1 Adrenergic and Dopamine D2 Receptors. Methods: Binding and functional assays for α1 adrenergic and dopamine D2 receptors were performed by Eurofins Cerep according to their methods.
(§2) Antagonist activity. The antagonistic effects of test compounds on the α1A and α1B adrenergic receptors were measured using human receptor-transfected Chinese hamster ovary (CHO) cells. Antagonist activity was determined by measuring compound effect on agonist (epinephrine)-induced calcium mobilization in the α1A receptor assay or cAMP levels in the α1B receptor assay. In these experiments, CHO cells were incubated in duplicate at room temperature with test article and epinephrine at 3 nM in the α1A receptor assays or at 3000 nM in the α1B receptor assay. Compound A was tested in the α1A receptor assay at 0.01-30 μM. […] Compound 1 and Compound 2 were assayed at 0.03 to 30 μM in the α1A receptor assay and 0.03 to 100 μM in the α1B receptor assay. In the α1A receptor assay, cytosolic calcium levels were measured fluorometrically using the fluorescent probe, Fluo4 Direct. Intracellular cAMP levels in the α1B adrenergic receptor assay were measured by homogenous time-resolved fluorescence (HTRF). The antagonism IC50 was defined as the concentration causing a half-maximum inhibition of control agonist response.

α1A adrenergic receptor = biological target: T2, α1A adrenergic receptor (Homo sapiens, UniProt P35348); experiment: α1A adrenergic receptor antagonist assay (calcium mobilization, CHO cells); type: cell-based
T2 construct: host or cells: CHO cells
T2 sequence (P35348 1-466): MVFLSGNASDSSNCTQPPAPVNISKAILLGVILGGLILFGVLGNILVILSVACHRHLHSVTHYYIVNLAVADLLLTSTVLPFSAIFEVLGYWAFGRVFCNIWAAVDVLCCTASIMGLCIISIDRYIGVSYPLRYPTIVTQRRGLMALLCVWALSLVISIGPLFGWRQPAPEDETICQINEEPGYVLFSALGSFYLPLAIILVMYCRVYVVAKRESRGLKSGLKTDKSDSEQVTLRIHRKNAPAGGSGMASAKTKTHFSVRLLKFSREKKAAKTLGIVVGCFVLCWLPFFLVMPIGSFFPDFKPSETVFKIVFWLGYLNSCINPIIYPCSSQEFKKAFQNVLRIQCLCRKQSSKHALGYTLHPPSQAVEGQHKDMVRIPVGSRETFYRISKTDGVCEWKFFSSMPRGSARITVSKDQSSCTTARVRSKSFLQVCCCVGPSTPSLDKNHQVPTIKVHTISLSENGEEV
Method: as §1, §2

dopamine D2S receptor = biological target: T3, dopamine D2S receptor (Homo sapiens, UniProt P14416); experiment: Dopamine D2S receptor agonist assay (impedance, HEK-293); type: cell-based
T3 construct: host or cells: HEK-293 cells (membrane homogenates)
Method: as §1
Agonist activity. The agonism of test compounds on the dopamine D2S receptor was assessed using human receptor-transfected HEK-293 cells. Agonist activity was determined by measuring compound effect on impedance modulation. In these experiments, HEK-293 cells were incubated in duplicate at 28° C. with test article. Compound A was tested at 0.01-30 μM. […] Dopamine (3 μM) was used as an agonist control. Impedance measurements were monitored for 10 minutes after ligand addition using cellular dielectric spectroscopy. The EC50 was defined as the concentration causing a half-maximum response, compared to the control agonist (dopamine) response.

[1] = system: CD38 expression in MM cell lines; experiment: Cell surface CD38 expression in MM cells (72 h pretreatment); type: cell-based, human; details: 72 h treatment
Method: FIG. 17. Compound 2 upregulates CD38 expression in MM cell lines. The cell surface expression of CD38 was evaluated in MM cells pretreated with Compound 2 or pomalidomide for 72 h. The dose response effects are shown for OPM-2 and OPM-2.P10 cell lines.
The extent of CD38 expression was greater with Compound 2 and occurred at lower concentrations compared to pomalidomide. MM cells+/−Compound 2 or pomalidomide pretreatment were evaluated in ADCC assays with daratumumab. […] Compound 2 treated cells were also more sensitive to daratumumab-mediated ADCC compared to pomalidomide treated cells. The ability of Compound 2 and pomalidomide to modulate daratumumab-mediated ADCP was also tested.

CYP2B6 = biological target: T4, CYP2B6 (Homo sapiens, UniProt P20813); experiment: CYP inhibition in pooled human liver microsomes; type: in vitro ADME
T4 construct: from tissue; host or cells: pooled human liver microsomes
T4 sequence (P20813 1-491): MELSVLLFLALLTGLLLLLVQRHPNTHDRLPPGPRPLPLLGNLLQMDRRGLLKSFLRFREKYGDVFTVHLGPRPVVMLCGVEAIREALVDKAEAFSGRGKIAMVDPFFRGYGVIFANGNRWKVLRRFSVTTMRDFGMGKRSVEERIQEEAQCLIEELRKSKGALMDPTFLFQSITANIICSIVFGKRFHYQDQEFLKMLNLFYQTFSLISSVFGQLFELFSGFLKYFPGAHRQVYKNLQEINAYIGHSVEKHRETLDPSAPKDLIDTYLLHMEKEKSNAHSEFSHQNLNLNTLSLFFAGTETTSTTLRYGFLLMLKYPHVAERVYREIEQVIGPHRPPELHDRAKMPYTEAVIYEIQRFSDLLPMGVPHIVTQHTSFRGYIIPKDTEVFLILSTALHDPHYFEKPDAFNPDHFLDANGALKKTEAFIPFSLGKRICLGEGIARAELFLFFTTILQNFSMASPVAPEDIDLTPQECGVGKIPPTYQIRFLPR
Method: (§3) Methods. […] In addition, the compounds were evaluated for their potential to act as a time-dependent inhibitors at the same concentrations mentioned above. […] In addition to appropriate vehicle controls, known direct inhibitors and time-dependent inhibitors of CYP isoforms were included as positive controls. Following the incubation, concentrations of probe substrate metabolites were quantified using established LC/MS/MS methods. The extent of inhibition was expressed as the percentage of control activity.

CYP2C9 = biological target: T5, CYP2C9 (Homo sapiens, UniProt P11712); experiment: CYP inhibition in pooled human liver microsomes; type: in vitro ADME
T5 construct: from tissue; host or cells: pooled human liver microsomes
Method: as §3

[2] = up to 30 μM, 30 minute preincubation with or without NADPH
[3] = up to / at 30 μM, human liver microsomes

T5 sequence (P11712 whole entry): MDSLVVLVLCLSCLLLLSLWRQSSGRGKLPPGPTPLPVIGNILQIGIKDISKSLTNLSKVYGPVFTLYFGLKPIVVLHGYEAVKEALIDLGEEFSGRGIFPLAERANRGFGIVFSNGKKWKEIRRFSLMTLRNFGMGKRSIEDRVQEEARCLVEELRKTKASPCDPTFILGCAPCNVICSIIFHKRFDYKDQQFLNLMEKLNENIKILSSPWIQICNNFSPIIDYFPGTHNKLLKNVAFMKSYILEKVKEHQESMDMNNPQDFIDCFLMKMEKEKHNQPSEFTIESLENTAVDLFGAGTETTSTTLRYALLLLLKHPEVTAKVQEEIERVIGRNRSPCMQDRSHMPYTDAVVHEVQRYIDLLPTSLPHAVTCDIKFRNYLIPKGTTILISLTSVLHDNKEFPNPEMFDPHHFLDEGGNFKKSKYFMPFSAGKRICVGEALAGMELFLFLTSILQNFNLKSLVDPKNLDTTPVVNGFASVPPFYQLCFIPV
T3 sequence (P14416 1-414 isoform P14416-2): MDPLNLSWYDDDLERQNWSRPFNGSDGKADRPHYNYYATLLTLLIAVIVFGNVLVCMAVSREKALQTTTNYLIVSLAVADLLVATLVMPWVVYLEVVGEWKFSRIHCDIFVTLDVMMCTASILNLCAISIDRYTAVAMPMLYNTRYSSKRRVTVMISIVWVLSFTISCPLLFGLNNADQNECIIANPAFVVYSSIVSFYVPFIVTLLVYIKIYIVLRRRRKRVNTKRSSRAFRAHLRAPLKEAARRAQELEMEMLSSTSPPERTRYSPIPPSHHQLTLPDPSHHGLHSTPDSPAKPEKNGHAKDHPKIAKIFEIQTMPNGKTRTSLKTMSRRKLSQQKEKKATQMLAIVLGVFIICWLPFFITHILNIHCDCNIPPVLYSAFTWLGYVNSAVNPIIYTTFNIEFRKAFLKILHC

## N#Cc1ccc(N2CCN(Cc3ccc(COc4cccc5c4CN(C4CCC(=O)NC4=O)C5=O)cc3)CC2)c(F)c1 (racemic) [Compound 1, 4-(4-(4-(((2-(2,6-dioxopiperidin-3-yl)-1-oxoisoindolin-4-yl)oxy)methyl)benzyl)piperazin-1-yl)-3-fluorobenzonitrile]
α1B adrenergic receptor
  IC50: 6900 nM
α1A adrenergic receptor
  IC50: 980 nM
Dopamine D2S receptor; impedance, versus dopamine control
  D2S Agonism EC50: Negative

## N#Cc1ccc(N2CCN(Cc3ccc(COc4cccc5c4CN([C@H]4CCC(=O)NC4=O)C5=O)cc3)CC2)c(F)c1 [Compound 2, (S)-4-(4-(4-(((2-(2,6-dioxopiperidin-3-yl)-1-oxoisoindolin-4-yl)oxy)methyl)benzyl)piperazin-1-yl)-3-fluorobenzonitrile]
α1B adrenergic receptor
  IC50: 2400 nM
[1]
  CD38 expression in MM cells: dose-dependent increase of CD38 expression
α1A adrenergic receptor
  IC50: 580 nM
CYP2B6; human, microsomes
  inhibition at 30 µM: ≤ 30%
CYP2C9; human, microsomes
  inhibition at 30 µM: ≤ 30%
Dopamine D2S receptor
  EC50: > 10000 nM

## O=C1CC[C@H](N2Cc3c(OCc4ccc(CN5CCN(c6ccc(F)cc6F)CC5)cc4)cccc3C2=O)C(=O)N1 [Compound B]
α1B adrenergic receptor; epinephrine 3000 nM, cAMP, read-out: Antagonism IC50 α1B
  IC50: 78 nM
α1A adrenergic receptor; epinephrine 3 nM, calcium mobilization, read-out: Antagonism IC50 α1A
  IC50: 6.4 nM
CYP2B6; [2]
  time-dependent inhibition of CYP2B6: little to no time-dependent inhibition; also recorded: not a time-dependent inhibitor
CYP2B6; [3]
  direct inhibition of CYP2B6: 59%
CYP2C9; [2]
  time-dependent inhibition of CYP2C9: little to no time-dependent inhibition; also recorded: not a time-dependent inhibitor
CYP2C9; [3]
  direct inhibition of CYP2C9: 38%
Dopamine D2S receptor; impedance, versus dopamine control, read-out: D2S Agonism EC50
  EC50: 2700 nM and 1900 nM

## Nc1cccc2c1C(=O)N(C1CCC(=O)NC1=O)C2=O (centres unmarked) [Pomalidomide, pomalidomide]
[1]
  CD38 expression in MM cells: dose-dependent increase of CD38 expression

Source: US12029738B2, “Antiproliferative compounds and methods of use thereof” (Celgene Corporation, priority 2017, dated 2024)
